Like-named read-outs stand apart in the source and are kept apart here. Blank lines part the entries; values can stand above or below the compound they belong to. Non-standard residues stand in square brackets, D forms with d. Residues, ends and D or L forms follow the SMILES beside them. *: point of attachment. X1 = CC(C)C[C@H](NC[C@H](Cc1ccccc1)N*)C(N)=O; X2 = CC(C)C[C@@H](CN[C@@H](CC(C)C)C(N)=O)N*; Sta = CC(C)C[C@H](N)[C@@H](O)CC(=O)O; pGlu = O=C1CC[C@@H](C(=O)O)N1
Experiments:
[1] = target: 3T3 fibroblast bombesin receptors (murine (3T3 murine fibroblasts)) (UniProt P21729)
[2] = target: T1, 3T3 fibroblast bombesin receptors (3T3 GRP receptor) (Mus musculus, UniProt P21729); assay: In vitro inhibition of [125I]GRP binding to 3T3 fibroblast bombesin receptors; parameters: species or system murine; details: for activity in the 3T3 GRP receptor binding assay (in words): Table 1
T1 construct: Membranes from various tissues (rat brain, rat pancreas, rat anterior pituitary, SCLC, 3T3 cells) are prepared by homogenization; endogenous in cells; host or cells: 3T3 fibroblasts (membrane preparation)
T1 sequence (P21729 whole entry): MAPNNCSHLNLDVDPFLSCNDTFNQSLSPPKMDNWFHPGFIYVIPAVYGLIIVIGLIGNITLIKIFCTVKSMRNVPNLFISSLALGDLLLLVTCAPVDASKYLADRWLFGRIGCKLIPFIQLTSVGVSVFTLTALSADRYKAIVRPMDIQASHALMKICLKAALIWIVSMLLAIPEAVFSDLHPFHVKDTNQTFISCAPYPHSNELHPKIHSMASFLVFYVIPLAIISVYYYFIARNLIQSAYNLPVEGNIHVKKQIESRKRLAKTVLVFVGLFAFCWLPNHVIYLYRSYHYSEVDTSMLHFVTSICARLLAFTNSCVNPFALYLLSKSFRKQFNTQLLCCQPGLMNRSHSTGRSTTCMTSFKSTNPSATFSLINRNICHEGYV
Method: Phase 4—In Vitro Inhibition of [^125I] Gastrin Releasing Peptide (GRP) Binding to Bombesin Receptors
Membranes from various tissues (rat brain, rat pancreas, rat anterior pituitary, SCLC, 3T3 cells) are prepared by homogenization in 50 mM TrisHCl containing 0.1% bovine serum albumin and 0.1 mg/ml bacitracin followed by two centrifugations (39,000×g×15 min., 4° C.) with an intermediate resuspension in-fresh buffer. For assay, aliquots […] are incubated with 0.5 nM [^125I]GRP (˜2000 Ci/mmol, Amersham Corp.) and various concentrations of the test compounds in a final volume of 0.5 ml. After a 30 minute incubation at 4° C., the binding reaction is terminated by rapid filtration through Whatman GF/C filters that have been pre-soaked in 0.3% aqueous polethyleneimine to reduce the level of nonspecific binding. The filters and tubes are washed three times with 4 ml aliquots of ice-cold buffer, and the radioactivity trapped on the filters is counted by gamma-spectrometry. Specific binding is defined as the total. [^125I]GRP bound minus that bound in the presence of 1000 nM. bombesin or a related peptide.
(§1) A number of analogs of bombesin or GRP, each containing a non-peptide bond or a statine, AHPPA, or ACHPA, β-amino acid, or γ-amino acid residue, can be synthesized and tested in one or more of the above-described Phase 1-7 assays; the results of Phase 1 and 2 tests are given in Table 1 attached hereto. […] (3T3 GRP receptor and thymidine uptake data are expressed in IC50 (nM).) Table 1 also gives results for non-peptide bond-containing analogs of one other naturally-occurring peptide, Neuromedin C, whose C-terminal seven amino acids are similar to those of bombesin and GRP. (In Table 1, “Litorin” indicates a 9 residue peptide analog or its derivative, whereas “Neuromedin C” indicates a 10 residue analog or its derivative.)

[3] = target: swiss 3T3 cells (Mus musculus, UniProt P21729); assay: Bombesin-stimulated [3H]thymidine uptake by cultured 3T3 cells; format: cell-based, murine; details: Table 1
Chain of swiss 3T3 cells (P21729 whole entry): as above
Method: Phase 1—3T3 Peptide Stimulated [^3H] Thymidine Uptake Assay
Cell Culture. Stock cultures of swiss 3T3 cells are grown in Dulbecco's Modified Eagles Medium (DMEM) supplemented with 10% fetal calf serum in humidified atmosphere of 10% CO2/90% air at 37° C. For experimental use, the cells are seeded into 24-well cluster trays and used four days after she last change of medium. The cells are arrested in the G1/G0 phase of the cell cycle by changing to serum-free DMEM 24 hours prior to the thymidine uptake assay.
Assay of DNA Synthesis. The cells are washed twice with 1 ml aliquots of DMEM (-serum) then incubated with DMEM (-serum), 0.5 μM [methyl-^3H] thymidine (20 Ci/mmole, New England Nuclear), bombesin (3 nM), and initially four concentrations of the test compounds (1, 10, 100, 1000 nM) in a final volume of 1.0 ml. After 28 hours at 37° C., [methyl-^3H] thymidine incorporation into acid-insoluble pools is assayed as follows. The cells are washed twice with ice-cold 0.9% NaCl (1 ml aliquots), and acid soluble radioactivity is removed by a 30 min. (4° C.) incubation with 5% trichloroacetic acid (TCA). The cultures are then washed once (1 ml) with 95% ethanol and solubilized by a 30 min. incubation (1 ml) with 0.1N NaOH. The solubilized material is transferred to vials containing 10 ml ScintA (Packard), and the radioactivity is determined by liquid scintillation spectrometry.
as §1

[4] = tested on: NCI-H69 human SCLC; assay: In vivo antitumor activity, NCI-H69 small cell lung carcinoma xenografts; details: for Tumor Size Day 18 (mm) / % Test/Control (Day 18) / % Test/Control (Day 28) / Tumor Size Day 28 (mm): 50 μg/inj., b.i.d., QD1-28; for Tumor Size Day 18 (mm) / Tumor Size Day 28 (mm): mean ± SD
Method: Phase 6—In Vivo Antitumor Activity
NCI-H69 small cell lung carcinoma cells were transplanted from in vitro culture by implanting each animal with the equivalent of 5 confluent 75 cm^2 tissue culture flasks in the right flank. In vitro NCI-H69 cells grow as a suspension of cellular aggregates. Therefore, no attempt was made to disaggregate the cell agglomerates by physical or chemical means. Tumor size was calculated as the average of two diameters, i.e., (length and width/2) mm.
(§2) These observations prompted us to evaluate the effect of BIM-26100 on the in vivo growth of the SCLC tumor cell line described in Phase 6. Twenty athymic nude females, 5 to 6 weeks of age, were implanted on day 0 with the NCI-H69 human SCLC, individually identified and then randomized into the following vehicle control and test groups:
(§3) Growth of NCI-H69 xenografts and the tumor growth inhibitory activity of the bombesin antagonist BIM-26100 (pGlu-Gln-Trp-Ala-Val-Gly-His-Pheψ[CH2NH]Leu-NH2) are illustrated as tumor growth curves in FIG. 1, and relative tumor sizes in Table 2. […] The effectiveness of the antitumor activity of BIM-26100 is evident in view of the large inoculum of NCI-H69 tumor cells (i.e. the equivalent of 5 confluent 75 cm^2 cell culture flasks per animal) and the agglomerated condition of the cells. In confluent flasks, NCI-H69 agglomerates are macroscopically visible and together resemble a metastatic tumor colony. Many such tumor colonies were implanted per animal. The dose of BIM-26100 […] and is not optimal. Higher doses of BIM-26100 may be administered, as indicated by body weight gain (minus tumor weight) gain during the course of treatment (Table 3).

[5] = Body weight (minus tumor weight) during BIM-26100 treatment of tumor-bearing animals; format: in vivo, athymic nude females; details: for Body Weight(gm) Day 0 / Body Weight(gm) Day 18 / Body Weight(gm) Day 28: 50 μg/inj., b.i.d., QD1-28, tumor weight subtracted
Excerpt: as §2, §3

[6] = inhibition of [125I]GRP binding, 3T3 membranes, read-out: 3T3 GRP Receptor IC50

Compound: BIM-26108, N-Ac-D-Ala-His-Trp-Ala-Val-Gly-His-Leuψ[CH2NH]Leu-NH2 (GRP (19-27) analog) (peptide)
bombesin-stimulated [3H]Thymidine uptake, IC50 [1]: > 1000 nM

Compound: BIM-26122, D-Phe-Gln-Trp-Ala-Val-Gly-His-Leu-NH2 (Litorin analog) (peptide)
bombesin-stimulated [3H]Thymidine uptake, IC50 [1]: 28.6 nM

Compound: CC(C)C[C@H](NC[C@H](Cc1ccccc1)NC(=O)[C@H](Cc1c[nH]cn1)NC(=O)CNC(=O)[C@@H](NC(=O)[C@H](C)NC(=O)[C@H](Cc1c[nH]c2ccccc12)NC(=O)[C@H](CCC(N)=O)NC(=O)[C@@H]1CCC(=O)N1)C(C)C)C(N)=O [BIM-26100, pGlu-Gln-Trp-Ala-Val-Gly-His-Pheψ[CH2NH]Leu-NH2] ([pGlu]QWAVGH-X1)
activity in the 3T3 GRP receptor binding assay (in words) [2]: most active | Tumor Size Day 18 (mm) ([4]; s.c. inf. (infused around tumor)): 7.6 ± 1.56 mm | % Test/Control (Day 18) ([4]; s.c. inf.): 70% | % Test/Control (Day 28) ([4]; s.c. inf.): 86% | Tumor Size Day 28 (mm) ([4]; s.c. inf.): 13.7 ± 0.67 mm | % Test/Control (Day 18) ([4]; s.c.): 93% | Tumor Size Day 18 (mm) ([4]; s.c.): 10.1 ± 1.47 mm | % Test/Control (Day 28) ([4]; s.c.): 108% | Tumor Size Day 28 (mm) ([4]; s.c.): 17.3 ± 1.96 mm | tumor growth inhibitory activity (in words) ([4]; s.c. infusion around the tumor): significantly inhibited tumor growth | Body Weight(gm) Day 0 ([5]; s.c. inf.): 17.7 gm | Body Weight(gm) Day 18 ([5]; s.c. inf.): 20.4 gm | Body Weight(gm) Day 28 ([5]; s.c. inf.): 21.1 gm | Body Weight(gm) Day 0 ([5]; s.c.): 16.9 gm | Body Weight(gm) Day 18 ([5]; s.c.): 19.2 gm | Body Weight(gm) Day 28 ([5]; s.c.): 19.1 gm | local or systemic toxicity (in words) ([5]; judged from body weight gain during treatment): completely lacks local or systemic toxicity

Compound: CC(C)C[C@@H](CN[C@@H](CC(C)C)C(N)=O)NC(=O)[C@H](Cc1c[nH]cn1)NC(=O)CNC(=O)[C@@H](NC(=O)[C@H](C)NC(=O)[C@H](Cc1c[nH]c2ccccc12)NC(=O)[C@H](CCC(N)=O)NC(=O)[C@H](N)Cc1ccccc1)C(C)C [BIM-26113, D-Phe-Gln-Trp-Ala-Val-Gly-His-Leuψ[CH2NH]Leu-NH2]
IC50 [2]: 5.8 nM | activity in the 3T3 GRP receptor binding assay (in words) [2]: active

Compound: BIM-26106, desGly-D-Ala-His-Trp-Ala-Val-D-ALa-His-Leuψ[CH2CH]Leu-NH2 (Neuromedin C analog) (peptide)
bombesin-stimulated [3H]Thymidine uptake, IC50 [1]: 354 nM

Compound: BIM-26107, D-Phe-His-Trp-Ala-Val-Gly-His-Leuψ[CH2NH]Leu-NH2 (Neuromedin C analog) (peptide)
bombesin-stimulated [3H]Thymidine uptake, IC50 [1]: 154 nM

Compound: CC(C)C[C@@H](CN[C@@H](CC(C)C)C(N)=O)NC(=O)[C@H](Cc1c[nH]cn1)NC(=O)CNC(=O)[C@@H](NC(=O)[C@H](C)NC(=O)[C@H](Cc1c[nH]c2ccccc12)NC(=O)[C@H](CCC(N)=O)NC(=O)[C@@H]1CCC(=O)N1)C(C)C [BIM-26101, pGlu-Gln-Trp-Ala-Val-Gly-His-Leuψ[CH2NH]Leu-NH2] ([pGlu]QWAVGH-X2)
activity in the 3T3 GRP receptor binding assay (in words) [2]: most active

Compound: BIM-26105, D-Ala-Asn-His-Trp-Ala-Val-D-ALa-His-Leuψ[CH2CH]Leu-NH2 (Neuromedin C analog) (peptide)
bombesin-stimulated [3H]Thymidine uptake, IC50 [1]: 107 nM

Compound: BIM-26113, D-Phe-Gln-Trp-Ala-Val-Gly-His-Leuψ[CH2NH]Leu-NH2 (Litorin analog) (peptide)
bombesin-stimulated [3H]Thymidine uptake, IC50 [1]: 9 nM

Compound: BIM-26095, pGlu-Gln-Trp-Ala-Val-D-Ala-His-Leuψ[CH2NH]Leu-NH2 (Litorin analog) (peptide)
bombesin-stimulated [3H]Thymidine uptake, IC50 [1]: 1210 nM

Continued, values first:

activity in the 3T3 GRP receptor binding assay (in words) [2]: antagonists | IC50 [2, 6]: 401 nM | activity in the 3T3 thymidine uptake assay (in words) [3]: antagonists
Compound: CC(C)C[C@@H](CN[C@@H](CC(C)C)C(N)=O)NC(=O)[C@H](Cc1c[nH]cn1)NC(=O)[C@@H](C)NC(=O)[C@@H](NC(=O)[C@H](C)NC(=O)[C@H](Cc1c[nH]c2ccccc12)NC(=O)[C@H](Cc1c[nH]cn1)NC(=O)[C@@H](C)N)C(C)C [BIM-26106, desGly-D-Ala-His-Trp-Ala-Val-D-ALa-His-Leuψ[CH2CH]Leu-NH2] (H-[dA]HWAV[dA]H-X2; N-terminus assumed)

activity in the 3T3 GRP receptor binding assay (in words) [2]: antagonists | activity in the 3T3 thymidine uptake assay (in words) [3]: antagonists
Compound: CC(C)C[C@@H](CN[C@@H](CC(C)C)C(N)=O)NC(=O)[C@H](Cc1c[nH]cn1)NC(=O)CNC(=O)[C@@H](NC(=O)[C@H](C)NC(=O)[C@H](Cc1c[nH]c2ccccc12)NC(=O)[C@H](Cc1c[nH]cn1)NC(=O)[C@H](CC(N)=O)NC(=O)CN)C(C)C [BIM-26092, Gly-Asn-His-Trp-Ala-Val-Gly-His-Leuψ[CH2NH]Leu-NH2] (H-GNHWAVGH-X2)

activity in the 3T3 thymidine uptake assay (in words) [3]: potent antagonists
Compound: CC(C)C[C@H](NC(=O)[C@H](Cc1c[nH]cn1)NC(=O)CNC(=O)[C@@H](NC(=O)[C@H](C)NC(=O)[C@H](Cc1c[nH]c2ccccc12)NC(=O)[C@H](CCC(N)=O)NC(=O)[C@@H]1CCC(=O)N1)C(C)C)[C@@H](O)CC(N)=O [BIM-26120, pGlu-Gln-Trp-Ala-Val-Gly-His-Sta-NH2] ([pGlu]QWAVGH[Sta]-NH2)

IC50 [2, 6]: 2620 nM
Compound: CC(C)C[C@@H](CN[C@@H](CC(C)C)C(N)=O)NC(=O)[C@H](Cc1c[nH]cn1)NC(=O)[C@@H](C)NC(=O)[C@@H](NC(=O)[C@H](C)NC(=O)[C@H](Cc1c[nH]c2ccccc12)NC(=O)[C@H](CCC(N)=O)NC(=O)[C@@H]1CCC(=O)N1)C(C)C [BIM-26095, pGlu-Gln-Trp-Ala-Val-D-Ala-His-Leuψ[CH2NH]Leu-NH2] ([pGlu]QWAV[dA]H-X2)

— patent US20050026827A1, “Octapeptide bombesin analogs” (Societe de Conseils de Recherches et d'Applications …, priority 1987, published 2005)
